Assays:
[1] = test system: lambsquarters; experiment: Test Example 4: herbicidal effect by soil treatment (Table 19, symbol O); type: in vivo, lambsquarters (Chenopodium album); settings: amount of applied herbicide 320 g/ha
Procedure, shortened: (§1)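 Seeds were sown in sterilized diluvial soil and covered with about 1.5 cm of soil. An emulsion formulation diluted with water to a predetermined herbicide amount was sprayed evenly onto the soil surface. Plants grew in a greenhouse at 25° C. to 30° C., and the effect was scored three weeks after application using criteria from an earlier test.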

[2] = test system: chickweed; experiment: Test Example 5: herbicidal effect by foliage application, plastic box (Table 20, symbol P); type: in vivo, common chickweed (Stellaria media); settings: amount of applied herbicide 320 g/ha; foliage application after 14-day growth; evaluated three weeks after application
Procedure, shortened: (§2)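 Plants sown in sterilized diluvial soil and grown 14 days in a greenhouse at 25° C to 30° C, then sprayed on the foliage with the compound's emulsion diluted in water to a predetermined herbicide amount. Injury to weeds and crops scored three weeks after application on a visual rating scale.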

[3] = test system: Japanese bulrush; experiment: Test Example 1: herbicidal activity, application before weed generation under submerged conditions (Table 16, symbol B); type: in vivo, Japanese bulrush (Schoenoplectus juncoides); settings: amount of applied herbicide 320 g/ha
Procedure, shortened: (§3)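 Submerged Wagner pots (alluvial soil, 4 cm water) sown with weed seeds and planted with 2.5-leaf rice seedlings; emulsifiable concentrate diluted in water applied to water surface on sowing day. Held in greenhouse at 25-30 °C; injury scored 0-5 by herbicidal rate after three weeks.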

[4] = test system: chickweed; experiment: Test Example 4: herbicidal effect by soil treatment (Table 19, symbol P); type: in vivo, common chickweed (Stellaria media); settings: amount of applied herbicide 320 g/ha
Procedure, shortened: as §1

[5] = test system: oval-leafed pondweed; experiment: Test Example 1: herbicidal activity, application before weed generation under submerged conditions (Table 16, symbol C); type: in vivo, oval-leafed pondweed (Monochoria vaginalis); settings: amount of applied herbicide 320 g/ha
Procedure, shortened: as §3

[6] = test system: barnyard grass; experiment: Test Example 5: herbicidal effect by foliage application, plastic box (Table 20, symbol H); type: in vivo, barnyard grass (Echinochloa crus-galli); settings: amount of applied herbicide 320 g/ha; foliage application after 14-day growth; evaluated three weeks after application
Procedure, shortened: as §2

[7] = test system: green foxtail; experiment: Test Example 4: herbicidal effect by soil treatment (Table 19, symbol G); type: in vivo, green foxtail (Setaria viridis); settings: amount of applied herbicide 320 g/ha
Procedure, shortened: as §1

[8] = test system: redroot pigweed; experiment: Test Example 4: herbicidal effect by soil treatment (Table 19, symbol N); type: in vivo, redroot pigweed (Amaranthus retroflexus); settings: amount of applied herbicide 320 g/ha
Procedure, shortened: as §1

[9] = test system: windgrass; experiment: Test Example 4: herbicidal effect by soil treatment (Table 19, symbol L); type: in vivo, windgrass (Apera spica-venti); settings: amount of applied herbicide 320 g/ha
Procedure, shortened: as §1

[10] = test system: velvetleaf; experiment: Test Example 5: herbicidal effect by foliage application, plastic box (Table 20, symbol M); type: in vivo, velvetleaf (Abutilon theophrasti); settings: amount of applied herbicide 320 g/ha; foliage application after 14-day growth; evaluated three weeks after application
Procedure, shortened: as §2

[11] = test system: southern crabgrass; experiment: Test Example 4: herbicidal effect by soil treatment (Table 19, symbol F); type: in vivo, southern crabgrass (Digitaria ciliaris); settings: amount of applied herbicide 320 g/ha
Procedure, shortened: as §1

[12] = test system: late watergrass; experiment: Test Example 1: herbicidal activity, application before weed generation under submerged conditions (Table 16, symbol A); type: in vivo, late watergrass (Echinochloa oryzicola); settings: amount of applied herbicide 320 g/ha
Procedure, shortened: as §3

[13] = test system: wild oat; experiment: Test Example 5: herbicidal effect by foliage application, plastic box (Table 20, symbol I); type: in vivo, wild oat (Avena fatua); settings: amount of applied herbicide 320 g/ha; foliage application after 14-day growth; evaluated three weeks after application
Procedure, shortened: as §2

[14] = test system: persian speedwell; experiment: Test Example 5: herbicidal effect by foliage application, plastic box (Table 20, symbol R); type: in vivo, Persian speedwell (Veronica persica); settings: amount of applied herbicide 320 g/ha; foliage application after 14-day growth; evaluated three weeks after application
Procedure, shortened: as §2

[15] = test system: Chinese sprangletop; experiment: Test Example 3: herbicidal effect by foliage application, Wagner pot (Table 18, symbol D); type: in vivo, chinese sprangletop (Leptochloa chinensis); settings: 320 g/ha
Procedure, shortened: (§4)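 Plants were sown in alluvial soil held under 0.1–0.5 cm standing water and grown 14 days in a greenhouse at 25–30 °C. An emulsifiable formulation, water-diluted to the set dose, was then sprayed onto the foliage, and effects were scored three weeks later using previously defined criteria.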

[16] = test system: blackgrass; experiment: Test Example 4: herbicidal effect by soil treatment (Table 19, symbol J); type: in vivo, blackgrass (Alopecurus myosuroides); settings: amount of applied herbicide 320 g/ha
Procedure, shortened: as §1

[17] = test system: blackgrass; experiment: Test Example 5: herbicidal effect by foliage application, plastic box (Table 20, symbol J); type: in vivo, blackgrass (Alopecurus myosuroides); settings: amount of applied herbicide 320 g/ha; foliage application after 14-day growth; evaluated three weeks after application
Procedure, shortened: as §2

[18] = test system: Italian ryegrass; experiment: Test Example 4: herbicidal effect by soil treatment (Table 19, symbol K); type: in vivo, Italian ryegrass (Lolium multiflorum); settings: amount of applied herbicide 320 g/ha
Procedure, shortened: as §1

[19] = test system: rice flat sedge; experiment: Test Example 3: herbicidal effect by foliage application, Wagner pot (Table 18, symbol E); type: in vivo, rice flat sedge (Cyperus iria); settings: 320 g/ha
Procedure, shortened: as §4

[20] = test system: windgrass; experiment: Test Example 5: herbicidal effect by foliage application, plastic box (Table 20, symbol L); type: in vivo, windgrass (Apera spica-venti); settings: amount of applied herbicide 320 g/ha; foliage application after 14-day growth; evaluated three weeks after application
Procedure, shortened: as §2

[21] = test system: barnyard grass; experiment: Test Example 3: herbicidal effect by foliage application, Wagner pot (Table 18, symbol H); type: in vivo, barnyard grass (Echinochloa crus-galli); settings: 320 g/ha
Procedure, shortened: as §4

[22] = test system: lambsquarters; experiment: Test Example 5: herbicidal effect by foliage application, plastic box (Table 20, symbol O); type: in vivo, lambsquarters (Chenopodium album); settings: amount of applied herbicide 320 g/ha; foliage application after 14-day growth; evaluated three weeks after application
Procedure, shortened: as §2

[23] = test system: southern crabgrass; experiment: Test Example 5: herbicidal effect by foliage application, plastic box (Table 20, symbol F); type: in vivo, southern crabgrass (Digitaria ciliaris); settings: amount of applied herbicide 320 g/ha; foliage application after 14-day growth; evaluated three weeks after application
Procedure, shortened: as §2

[24] = test system: velvetleaf; experiment: Test Example 4: herbicidal effect by soil treatment (Table 19, symbol M); type: in vivo, velvetleaf (Abutilon theophrasti); settings: amount of applied herbicide 320 g/ha
Procedure, shortened: as §1

[25] = test system: persian speedwell; experiment: Test Example 4: herbicidal effect by soil treatment (Table 19, symbol R); type: in vivo, Persian speedwell (Veronica persica); settings: amount of applied herbicide 320 g/ha
Procedure, shortened: as §1

[26] = test system: barnyard grass; experiment: Test Example 4: herbicidal effect by soil treatment (Table 19, symbol H); type: in vivo, barnyard grass (Echinochloa crus-galli); settings: amount of applied herbicide 320 g/ha
Procedure, shortened: as §1

[27] = test system: green foxtail; experiment: Test Example 5: herbicidal effect by foliage application, plastic box (Table 20, symbol G); type: in vivo, green foxtail (Setaria viridis); settings: amount of applied herbicide 320 g/ha; foliage application after 14-day growth; evaluated three weeks after application
Procedure, shortened: as §2

[28] = test system: Italian ryegrass; experiment: Test Example 5: herbicidal effect by foliage application, plastic box (Table 20, symbol K); type: in vivo, Italian ryegrass (Lolium multiflorum); settings: amount of applied herbicide 320 g/ha; foliage application after 14-day growth; evaluated three weeks after application
Procedure, shortened: as §2

[29] = test system: redroot pigweed; experiment: Test Example 5: herbicidal effect by foliage application, plastic box (Table 20, symbol N); type: in vivo, redroot pigweed (Amaranthus retroflexus); settings: amount of applied herbicide 320 g/ha; foliage application after 14-day growth; evaluated three weeks after application
Procedure, shortened: as §2

[30] = test system: wild oat; experiment: Test Example 4: herbicidal effect by soil treatment (Table 19, symbol I); type: in vivo, wild oat (Avena fatua); settings: amount of applied herbicide 320 g/ha
Procedure, shortened: as §1

Compound	O: lambsquarters, herbicidal effect grade [1]	Herbicidal effect by foliage application, P: chickweed [2]	Herbicidal effect, B: Japanese bulrush [3]	P: chickweed, herbicidal effect grade [4]	Herbicidal effect, C: oval-leafed pondweed [5]	Herbicidal effect by foliage application, H: barnyard grass [6]	G: green foxtail, herbicidal effect grade [7]	N: redroot pigweed, herbicidal effect grade [8]	L: windgrass, herbicidal effect grade [9]	Herbicidal effect by foliage application, M: velvetleaf [10]	F: southern crabgrass, herbicidal effect grade [11]	Herbicidal effect, A: late watergrass [12]	Herbicidal effect by foliage application, I: wild oat [13]	Herbicidal effect by foliage application, R: persian speedwell [14]	herbicidal effect on Chinese sprangletop (D) [15]	J: blackgrass, herbicidal effect grade [16]	Herbicidal effect by foliage application, J: blackgrass [17]	K: Italian ryegrass, herbicidal effect grade [18]	herbicidal effect on rice flat sedge (E) [19]	Herbicidal effect by foliage application, L: windgrass [20]	other results
COCc1ccc(-c2sc3cc(F)c(F)cc3c2-c2c(O)c(C)nn(C)c2=O)cc1 [5-009]	4 (Herbicidal rate of 70% or more and less than 90%)	5 (Herbicidal rate of 90% or more (almost completely withered))	0 (Herbicidal rate of 5% or less (almost no effect))	5 (Herbicidal rate of 90% or more (almost completely withered))	0 (Herbicidal rate of 5% or less (almost no effect))	3 (Herbicidal rate of 40% or more and less than 70%)	2 (Herbicidal rate of 20% or more and less than 40%)	4 (Herbicidal rate of 70% or more and less than 90%)	0 (Herbicidal rate of 5% or less (almost no effect))	4 (Herbicidal rate of 70% or more and less than 90%)	0 (Herbicidal rate of 5% or less (almost no effect))	2 (Herbicidal rate of 20% or more and less than 40%)	0 (Herbicidal rate of 5% or less (almost no effect))	5 (Herbicidal rate of 90% or more (almost completely withered))	3 (Herbicidal rate of 40% or more and less than 70%)	0 (Herbicidal rate of 5% or less (almost no effect))	0 (Herbicidal rate of 5% or less (almost no effect))	0 (Herbicidal rate of 5% or less (almost no effect))	3 (Herbicidal rate of 40% or more and less than 70%)	0 (Herbicidal rate of 5% or less (almost no effect))	herbicidal effect on barnyard grass (H) [21]: 4 (Herbicidal rate of 70% or more and less than 90%); Herbicidal effect by foliage application, O: lambsquarters [22]: 3 (Herbicidal rate of 40% or more and less than 70%); Herbicidal effect by foliage application, F: southern crabgrass [23]: 2 (Herbicidal rate of 20% or more and less than 40%); M: velvetleaf, herbicidal effect grade [24]: 2 (Herbicidal rate of 20% or more and less than 40%); R: persian speedwell, herbicidal effect grade [25]: 5 (Herbicidal rate of 90% or more (almost completely withered)); H: barnyard grass, herbicidal effect grade [26]: 0 (Herbicidal rate of 5% or less (almost no effect)); Herbicidal effect by foliage application, G: green foxtail [27]: 3 (Herbicidal rate of 40% or more and less than 70%); Herbicidal effect by foliage application, K: Italian ryegrass [28]: 3 (Herbicidal rate of 40% or more and less than 70%); Herbicidal effect by foliage application, N: redroot pigweed [29]: 5 (Herbicidal rate of 90% or more (almost completely withered)); I: wild oat, herbicidal effect grade [30]: 0 (Herbicidal rate of 5% or less (almost no effect))
CCOc1ccccc1-c1sc2cc(F)c(F)cc2c1-c1c(O)c(C)nn(C)c1=O [5-016]	5 (Herbicidal rate of 90% or more (almost completely withered))	5 (Herbicidal rate of 90% or more (almost completely withered))	1 (Herbicidal rate of 5% or more and less than 20%)	5 (Herbicidal rate of 90% or more (almost completely withered))	0 (Herbicidal rate of 5% or less (almost no effect))	5 (Herbicidal rate of 90% or more (almost completely withered))	5 (Herbicidal rate of 90% or more (almost completely withered))	5 (Herbicidal rate of 90% or more (almost completely withered))	5 (Herbicidal rate of 90% or more (almost completely withered))	5 (Herbicidal rate of 90% or more (almost completely withered))	4 (Herbicidal rate of 70% or more and less than 90%)	3 (Herbicidal rate of 40% or more and less than 70%)	0 (Herbicidal rate of 5% or less (almost no effect))	5 (Herbicidal rate of 90% or more (almost completely withered))	2 (Herbicidal rate of 20% or more and less than 40%)	4 (Herbicidal rate of 70% or more and less than 90%)	4 (Herbicidal rate of 70% or more and less than 90%)	3 (Herbicidal rate of 40% or more and less than 70%)	5 (Herbicidal rate of 90% or more (almost completely withered))	5 (Herbicidal rate of 90% or more (almost completely withered))	herbicidal effect on barnyard grass (H) [21]: 5 (Herbicidal rate of 90% or more (almost completely withered)); Herbicidal effect by foliage application, O: lambsquarters [22]: 4 (Herbicidal rate of 70% or more and less than 90%); Herbicidal effect by foliage application, F: southern crabgrass [23]: 4 (Herbicidal rate of 70% or more and less than 90%); M: velvetleaf, herbicidal effect grade [24]: 4 (Herbicidal rate of 70% or more and less than 90%); R: persian speedwell, herbicidal effect grade [25]: 5 (Herbicidal rate of 90% or more (almost completely withered)); H: barnyard grass, herbicidal effect grade [26]: 5 (Herbicidal rate of 90% or more (almost completely withered)); Herbicidal effect by foliage application, G: green foxtail [27]: 5 (Herbicidal rate of 90% or more (almost completely withered)); Herbicidal effect by foliage application, K: Italian ryegrass [28]: 3 (Herbicidal rate of 40% or more and less than 70%); Herbicidal effect by foliage application, N: redroot pigweed [29]: 5 (Herbicidal rate of 90% or more (almost completely withered)); I: wild oat, herbicidal effect grade [30]: 0 (Herbicidal rate of 5% or less (almost no effect))

From US20230085307A1, “PYRIDAZINONE COMPOUND AND HERBICIDE” (NISSAN CHEMICAL CORPORATION, priority 2019, published 2023)
